Data as given in patent publication US12076411B2, “Anti-HER2 antibody-maytansine conjugates and methods of use thereof” (priority 2014, dated 2024).
pIC50: −log10 of the molar value.

Experiments:
[1] = tested on: NCI-N87 cells; assay: In vitro cytotoxicity, 6 day assay, Cell Titer-Glo (Example 2); assay type: cell-based; details: Homo sapiens, 144 h; NCI-N87, 6 day assay; antibody concentrations except for the free drug
Method: (§1) NCI-N87 cells, which overexpress HER2, were used as targets for in vitro cytotoxicity in a 6 day assay.
The HER2-positive breast carcinoma cell line, NCI-N87, was obtained from ATCC and maintained in RPMI-1640 medium (Cellgro) supplemented with 10% fetal bovine serum (Invitrogen) and Glutamax (Invitrogen). 24 h prior to plating, cells were passaged to ensure log-phase growth. On the day of plating, 5000 cells/well were seeded onto 96-well plates in 90 μL normal growth medium supplemented with 10 IU penicillin and 10 μg/mL streptomycin (Cellgro). Cells were treated at various concentrations with 10 μL of diluted analytes, and the plates were incubated at 37° C. in an atmosphere of 5% CO2. After 6 d, 100 μL/well of Cell Titer-Glo reagent (Promega) was added, and luminescence was measured using a Molecular Devices SpectraMax M5 plate reader. GraphPad Prism software was used for data analysis, including IC50 calculations.

[2] = tested on: NCI-N87 cells; assay: In vitro cytotoxicity, 6 d, Cell Titer-Glo (Example 5); assay type: cell-based; details: Homo sapiens, 144 h; NCI-N87, 6 d
Method: The HER2-positive gastric carcinoma cell line, NCI-N87, was obtained from ATCC and maintained in RPMI-1640 medium (Cellgro) supplemented with 10% fetal bovine serum (Invitrogen) and Glutamax (Invitrogen). 24 h prior to plating, cells were passaged to ensure log-phase growth. On the day of plating, 5000 cells/well were seeded onto 96-well plates in 90 μL normal growth medium supplemented with 10 IU penicillin and 10 μg/mL streptomycin (Cellgro). […] After 6 d, 100 μL/well of Cell Titer-Glo reagent (Promega) was added, and luminescence was measured using a Molecular Devices SpectraMax M5 plate reader. GraphPad Prism software was used for data analysis.

[3] = tested on: NCI-N87 cells; assay: In vitro cytotoxicity, 6 day assay, Cell Titer-Glo (Example 1); details: Homo sapiens, NCI-N87, 144 h
Method: as §1
24 h prior to plating, cells were passaged to ensure log-phase growth. On the day of plating, 5000 cells/well were seeded onto 96-well plates in 90 μL normal growth medium supplemented with 10 IU penicillin and 10 μg/mL streptomycin (Cellgro). Cells were treated at various concentrations with 10 μL of diluted analytes, and the plates were incubated at 37° C. in an atmosphere of 5% CO2. After 6 d, 100 μL/well of Cell Titer-Glo reagent (Promega, Madison, WI) was added, and luminescence was measured using a Molecular Devices SpectraMax M5 plate reader. GraphPad Prism software was used for data analysis, including IC50 calculations.

COc1cc2cc(c1Cl)N(C)C(=O)C[C@H](OC(=O)[C@H](C)N(C)C(C)=O)[C@]1(C)O[C@H]1[C@H](C)[C@@H]1C[C@@](O)(NC(=O)O1)[C@H](OC)/C=C/C=C(\C)C2 [free maytansine, maytansine]
pIC50 [1]: 9.60
pIC50 [2]: 9.46
pIC50 [3]: 9.67
